Results published in patent publication US20160193206A1, “BET-PROTEIN-INHIBITING DIHYDROPYRIDOPYRAZINONES” (BAYER PHARMA AKTIENGESELLSCHAFT, priority 2012, published 2016).

Experiments:
[1] = target: T1, BRD4 bromo domain 1 [BRD4(1)] (Homo sapiens, UniProt O60885); assay: BRD4(1)/acetylated peptide H4 binding assay (TR-FRET); settings: inhibition of interaction between His6-tagged BRD4(1) (amino acids 67-152) and acetylated histone H4 peptide
T1 construct: N-terminally His6-tagged BRD4(1) (amino acids 67-152); made in house; host or cells: E. coli
Description: (§1) Protein-Protein Interaction Assay: BRD4/Acetylated Peptide H4 Binding Assay
1. Assay Description for BRD4 Bromo Domain 1 [BRD4(1)]
To assess the BRD4(1) binding strength of the substances described in this application, the ability thereof to inhibit the interaction between BRD4(1) and acetylated histone H4 in a dose-dependent manner was quantified.
(§2) For this purpose, a time-resolved fluorescence resonance energy transfer (TR-FRET) assay was used, which measures the binding between N-terminally His6-tagged BRD4(1) (amino acids 67-152) and a synthetic acetylated histone H4 (Ac-H4) peptide with sequence GRGK(Ac)GGK(Ac)GLGK(Ac)GGAK(Ac)RHGSGSK-biotin. The recombinant BRD4(1) protein produced in-house according to Filippakopoulos et al., Cell, 2012, 149:214-231 was expressed in E. coli and purified by means of (Ni-NTA) affinity and (Sephadex G-75) size exclusion chromatography. The Ac-H4 peptide can be purchased, for example, from Biosyntan (Berlin, Germany).
(§3) In the assay, typically 11 different concentrations of each substance (0.1 nM, 0.33 nM, 1.1 nM, 3.8 nM, 13 nM, 44 nM, 0.15 μM, 0.51 μM, 1.7 μM, 5.9 μM and 20 μM) were analysed as duplicates on the same microtitre plate. For this purpose, 100-fold concentrated solutions in DMSO were prepared by serial dilutions (1:3.4) of a 2 mM stock solution into a clear, 384-well microtitre plate (Greiner Bio-One, Frickenhausen, Germany). From this, 50 nl were transferred into a black test plate (Greiner Bio-One, Frickenhausen, Germany). The test was started by the addition of 2 μl of a 2.5-fold concentrated BRD4(1) solution (final concentration typically 10 nM in the 5 μl of reaction volume) in aqueous assay buffer [50 mM HEPES pH 7.5, 50 mM sodium chloride (NaCl), 0.25 mM CHAPS and 0.05% serum albumin (BSA)] to the substances in the test plate. This was followed by a 10-minute incubation step at 22° C. for the pre-equilibration of putative complexes between BRD4(1) and the substances.
(§4) The mixture was then incubated in the dark at 22° C. for one hour and then at 4° C. for at least 3 hours and for no longer than overnight. The formation of BRD4(1)/Ac-H4 complexes was determined by the measurement of the resonance energy transfer from the streptavidin-Eu cryptate to the anti-6His-XL665 antibody present in the reaction. For this purpose, the fluorescence emission was measured at 620 nm and 665 nm after excitation at 330-350 nm in a TR-FRET measuring instrument, for example a Rubystar or Pherastar (both from BMG Lab Technologies, Offenburg, Germany) or a Viewlux (Perkin-Elmer). The ratio of the emissions at 665 nm and at 622 nm was taken as an indicator of the amount of BRD4(1)/Ac-H4 complexes formed.
(§5) The data (ratios) obtained were normalized, with 0% inhibition corresponding to the mean from the measurements for a set of controls (typically 32 data points) in which all the reagents were present. In these, in place of test substances, 50 nl of DMSO (100%) were used. Inhibition of 100% corresponded to the mean from the measurements for a set of controls (typically 32 data points) in which all the reagents except BRD4(1) were present. The IC50 was determined by regression analysis based on a 4-parameter equation (minimum, maximum, IC50, Hill; Y=max+(min−max)/(1+(X/IC50)Hill).

[2] = target: T2, BRD4 bromo domain 2 [BRD4(2)] (Homo sapiens, UniProt O60885); assay: BRD4(2)/acetylated peptide H4 binding assay (TR-FRET); settings: inhibition of interaction between His6-tagged BRD4(2) (amino acids 357-445) and acetylated histone H4 peptide
T2 construct: N-terminally His6-tagged BRD4(2) (amino acids 357-445); made in house; host or cells: E. coli
Description: as §1
2. Assay Description for BRD4 Bromo Domain 2 [BRD4(2)]
To assess the BRD4(2) binding strength of the substances described in this application, the ability thereof to inhibit the interaction between BRD4(2) and acetylated histone H4 in a dose-dependent manner was quantified.
as §2, with “BRD4(2)” for “BRD4(1)”, “357-445)” for “67-152)”, “SGRGK(Ac)GGK(Ac)GLGK(Ac)GGAK(Ac)RHRKVLRDNGSGSK-biotin.” for “GRGK(Ac)GGK(Ac)GLGK(Ac)GGAK(Ac)RHGSGSK-biotin.”
as §3, with “concentrated BRD4(2)” for “concentrated BRD4(1)”, “typically 100” for “typically 10”, “chloride (NaCl); 50 mM potassium fluoride (KF);” for “chloride (NaCl),”, “between BRD4(2)” for “between BRD4(1)”
as §4, with “BRD4(2)/Ac-H4” for “BRD4(1)/Ac-H4”, “chelate” for “cryptate”
as §5, with “BRD4(2)” for “BRD4(1)”

Row | SMILES | IC50 [1] | IC50 [2]
1 | COc1cc(C(=O)N2CCC(F)CC2)ccc1Nc1ccc2c(n1)N(Cc1ccccc1)[C@H](C)C(=O)N2C [Example 43, (3R)-4-Benzyl-6-({4-[(4-fluoropiperidin-1-yl)carbonyl]-2-methoxyphenyl}amino)-1,3-dimethyl-3,4-dihydropyrido[2,3-b]pyrazin-2(1H)-one] | 218 nM | 102 nM
2 | C[C@@H]1C(=O)N(C)c2ccc(Nc3ccc(C(=O)N[C@H]4CC[C@H](N5CCN(CC6CC6)CC5)CC4)cc3)nc2N1C1CCCCCC1 [Example 44, 4-{[(3R)-4-Cycloheptyl-1,3-dimethyl-2-oxo-1,2,3,4-tetrahydropyrido[2,3-b]pyrazin-6-yl]amino}-N-{trans-4-[4-(cyclopropylmethyl)piperazin-1-yl]cyclohexyl}benzamide] | 368 nM | 283 nM
3 | COc1cc(C(=O)NCc2ccccn2)ccc1Nc1ccc2c(n1)N(C1CCOCC1)[C@H](C)C(=O)N2C [Example 47, 4-{[(3R)-1,3-Dimethyl-2-oxo-4-(tetrahydro-2H-pyran-4-yl)-1,2,3,4-tetrahydropyrido[2,3-b]pyrazin-6-yl]amino}-3-methoxy-N-(pyridin-2-ylmethyl)benzamide] | 201 nM | 112 nM
4 | C[C@@H]1C(=O)N(C)c2ccc(Nc3ccc(C(=O)NCCc4cccnc4)cc3)nc2N1C1CCOCC1 [Example 49, 4-{[(3R)-1,3-Dimethyl-2-oxo-4-(tetrahydro-2H-pyran-4-yl)-1,2,3,4-tetrahydropyrido[2,3-b]pyrazin-6-yl]amino}-N-[2-(pyridin-3-yl)ethyl]benzamide] | 114 nM | 317 nM
5 | C[C@@H]1C(=O)N(C)c2ccc(Nc3ccc(C(=O)NC4CCC(N5CCC(F)(F)CC5)CC4)cc3)nc2N1C1CCOCC1 (some centres unmarked) [Example 52] | 166 nM | 299 nM
6 | Cc1cc(C(=O)NC2CCN(C)CC2)ccc1Nc1ccc2c(n1)N(C1CCOCC1)[C@H](C)C(=O)N2C [Example 54, 4-{[(3R)-1,3-Dimethyl-2-oxo-4-(tetrahydro-2H-pyran-4-yl)-1,2,3,4-tetrahydropyrido[2,3-b]pyrazin-6-yl]amino}-3-methyl-N-(1-methylpiperidin-4-yl)benzamide] | 357 nM | 354 nM
7 | C[C@@H]1C(=O)N(C)c2ccc(Nc3ccc(C(=O)N4CCN(C)CC4)cc3)nc2N1C1CCOCC1 [Example 56, (3R)-1,3-Dimethyl-6-({4-[(4-methylpiperazin-1-yl)carbonyl]phenyl}amino)-4-(tetrahydro-2H-pyran-4-yl)-3,4-dihydropyrido[2,3-b]pyrazin-2(1H)-one] | 139 nM | 242 nM
8 | COc1cc(C(=O)N[C@H]2CC[C@H](NC(=O)OC(C)(C)C)CC2)ccc1Nc1ccc2c(n1)N(C1CCOCC1)[C@H](C)C(=O)N2C [Example 59, tert-Butyl {trans-4-[(4-{[(3R)-1,3-dimethyl-2-oxo-4-(tetrahydro-2H-pyran-4-yl)-1,2,3,4-tetrahydropyrido[2,3-b]pyrazin-6-yl]amino}-3-methoxybenzoyl)amino]cyclohexyl}carbamate] | 533 nM | 323 nM
9 | COc1cc(C(=O)NC2CCC(O)CC2)ccc1Nc1ccc2c(n1)N(C1CCOCC1)[C@H](C)C(=O)N2C (stereo partly drawn) [Example 60, 4-{[(3R)-1,3-Dimethyl-2-oxo-4-(tetrahydro-2H-pyran-4-yl)-1,2,3,4-tetrahydropyrido[2,3-b]pyrazin-6-yl]amino}-N-(4-hydroxycyclohexyl)-3-methoxybenzamide] | 339 nM | 212 nM
10 | Cc1cc(C(=O)NCCN(C)C)ccc1Nc1ccc2c(n1)N(C1CCOCC1)[C@H](C)C(=O)N2C [Example 63, N-[2-(Dimethylamino)ethyl]-4-{[(3R)-1,3-dimethyl-2-oxo-4-(tetrahydro-2H-pyran-4-yl)-1,2,3,4-tetrahydropyrido[2,3-b]pyrazin-6-yl]amino}-3-methylbenzamide] | 262 nM | 206 nM
11 | COc1cc(C(=O)N2CCN(C3CC3)CC2)ccc1Nc1ccc2c(n1)N(C1CCOCC1)[C@H](C)C(=O)N2C [Example 65, (3R)-6-({4-[(4-Cyclopropylpiperazin-1-yl)carbonyl]-2-methoxyphenyl}amino)-1,3-dimethyl-4-(tetrahydro-2H-pyran-4-yl)-3,4-dihydropyrido[2,3-b]pyrazin-2(1H)-one] | 234 nM | 120 nM
12 | C[C@@H]1C(=O)N(C)c2ccc(Nc3ccc(C(=O)NC4CCC(N5CCC(F)(F)CC5)CC4)cc3)nc2N1C1CCCCC1 (stereo partly drawn) [Example 71, 4-{[(3R)-4-Cyclohexyl-1,3-dimethyl-2-oxo-1,2,3,4-tetrahydropyrido[2,3-b]pyrazin-6-l]amino}-N-[4-(4,4-difluoropiperidin-1-yl)cyclohexyl]benzamide] | 961 nM | 445 nM
13 | COc1cc(C(=O)N2CC3(COC3)C2)ccc1Nc1ccc2c(n1)N(C1CCCCC1)[C@H](C)C(=O)N2C [Example 73, (3R)-4-Cyclohexyl-6-{[2-methoxy-4-(2-oxa-6-azaspiro[3.3]hept-6-ylcarbonyl)phenyl]amino}-1,3-dimethyl-3,4-dihydropyrido[2,3-b]pyrazin-2(1H)-one] | 273 nM | 196 nM
